From ChEMBL document CHEMBL5634085, “Design, synthesis and antitrypanosomatid activity of 2-nitroimidazole-3,5-disubstituted isoxazole compounds based on benznidazole” (Eur J Med Chem, 2023)
Calls of active or inactive are those of the source. No cut-off for these calls is given here.

Experiments:
[1] = Selectivity index, ratio of CC50 for monkey LLC-MK2 cells to IC50 for Trypanosoma cruzi Tulahuen lacZ expressing beta-galactosidase amastigotes infected monkey LLC-MK2 cells; format: toxicity; details: read-out: Ratio CC50/IC50
Trypanosoma cruzi [2] = test: Antitrypanosomal activity against Trypanosoma cruzi Y strain trypomastigotes infection induced hepatosplenomegaly BALB/c male mouse model assessed as change in infection-mediated liver weight at 25 mg/kg/day, po administrated for consecutive 10 days; format: functional, organism-based; details: time 10.0 day
Trypanosoma cruzi [3] = test: Antitrypanosomal activity against Trypanosoma cruzi Y trypomastigotes infected in BALB/c mouse model assessed as reduction of parasitemia level at 25 mg/kg/day, po administered via gavage for consecutive 10 days and measured on day 5,7,9 and 11; format: functional, organism-based; details: time 11.0 day
Leishmania amazonensis [4] = test: (§1) Antileishmanial activity against Leishmania amazonensis IFLA/BR/1967/PH8 amastigotes infected in mouse peritoneal macrophage assessed as inhibition of parasite growth pre-infected in cells for 4 hrs followed by compound addition and measured after 24 hrs by Giemsa staining based analysis; format: functional, organism-based; details: IFLA/BR/1967/PH8, Peritoneal macrophage
[5] = Toxicity in BALB/c mouse infected with Trypanosoma cruzi Y trypomastigotes assessed as body weight gain at 25 mg/kg/day, po administrated via gavage for consecutive 10 days; format: organism-based; details: in vivo, 240 h, time 10 day
[6] = Cytotoxicity against monkey LLC-MK2 cells incubated for 72 hrs by MTT assay; format: toxicity, cell-based, Macaca mulatta; details: rhesus monkey
Trypanosoma cruzi [7] = test: (§2) Potency index, ratio of benznidazole IC50 to test compound IC50 for antitrypanosomal activity against Trypanosoma cruzi Tulahuen lacZ expressing beta-galactosidase amastigotes infected in monkey LLC-MK2 cells assessed as inhibition of amastigotes pre-infected in cells for 48 hrs followed by compound addition and measured after 72 hrs by CPRG reagent based absorbance analysis; format: functional
[8] = Toxicity in BALB/c mouse infected with Trypanosoma cruzi Y trypomastigotes assessed as animal survival at 25 mg/kg/day, po administrated via gavage for consecutive 10 days relative to control; format: organism-based; details: in vivo, time 10 day
Trypanosoma cruzi [9] = test: Binding affinity to Trypanosoma cruzi type I nitro reductase at 10 uM incubated for 5 mins in the presence of NADH by microplate reader analysis
[10] = Selectivity index, ratio of CC50 for cytotoxicity against monkey LLC-MK2 cells to IC50 for antileishmanial activity against Leishmania amazonensis IFLA/BR/1967/PH8 amastigotes infected in mouse peritoneal macrophage; format: toxicity, cell-based; details: read-out: Ratio CC50/IC50
Trypanosoma cruzi [11] = test: Antitrypanosomal activity against Trypanosoma cruzi Y strain trypomastigotes infection induced hepatosplenomegaly BALB/c male mouse model assessed as change in infection-mediated spleen weight at 25 mg/kg/day, po administrated for consecutive 10 days; format: functional, organism-based; details: time 10.0 day
Trypanosoma cruzi [12] = test: as §2, with “Antitrypanosomal” for “Potency index, ratio of benznidazole IC50 to test compound IC50 for antitrypanosomal”; format: functional, organism-based
Trypanosoma cruzi [13] = test: Binding affinity to Trypanosoma cruzi type I nitro reductase at 25 uM incubated for 5 mins in the presence of NADH by microplate reader analysis
Trypanosoma cruzi [14] = test: Effect on infection-mediated heart weight in Trypanosoma cruzi Y strain trypomastigotes infected in BALB/c mouse model at 25 mg/kg/day, po administered for consecutive 10 days; format: functional, organism-based; details: time 10.0 day
[15] = Toxicity in BALB/c mouse infected with Trypanosoma cruzi Y trypomastigotes assessed as body weight gain at 100 mg/kg/day, po administrated via gavage for consecutive 10 days; format: organism-based; details: in vivo, 240 h, time 10 day
Trypanosoma cruzi [16] = test: (§3) Antitrypanosomal activity against Trypanosoma cruzi Y trypomastigotes infected in BALB/c mouse model assessed as reduction of parasite load in cardiac tissue by measuring reduction in DNA copy number at 25 to 100 mg/kg/day, po administered via gavage observed on 11 day of post infection by qPCR analysis relative to control; format: functional; set-up: scale not given: the % may be the effect or the level left; details: dose 25-100 mg/kg/day
Trypanosoma cruzi [17] = test: Effect on infection-mediated heart weight in Trypanosoma cruzi Y strain trypomastigotes infected in BALB/c mouse model at 100 mg/kg/day, po administered for consecutive 10 days; format: functional, organism-based; details: time 10.0 day
[18] = Toxicity in BALB/c mouse infected with Trypanosoma cruzi Y trypomastigotes assessed as animal survival at 100 mg/kg/day, po administrated via gavage for consecutive 10 days relative to control; format: organism-based; details: in vivo, time 10 day
Trypanosoma cruzi [19] = test: as §3, with “25” for “25 to 100”; format: functional; set-up: scale not given: the % may be the effect or the level left
Trypanosoma cruzi [20] = test: Antitrypanosomal activity against Trypanosoma cruzi Y trypomastigotes infected in BALB/c mouse model assessed as reduction of parasitemia level at 25 mg/kg/day, po administered via gavage observed on 7 day of post infection relative to control; format: functional; set-up: scale not given: the % may be the effect or the level left
Trypanosoma cruzi [21] = test: Antitrypanosomal activity against Trypanosoma cruzi Y trypomastigotes infected in BALB/c mouse model assessed as reduction of parasitemia level at 25 mg/kg/day, po administered via gavage administrated for consecutive 10 days and measured on day 11; format: functional, organism-based; details: time 11.0 day
Leishmania amazonensis [22] = test: as §1, with “Potency index, ratio of pentamidine IC50 to test compound IC50 for antileishmanial” for “Antileishmanial”; format: functional, Peritoneal macrophage cell
[23] = Toxicity in BALB/c mouse infected with Trypanosoma cruzi Y trypomastigotes assessed as body weight loss at 25 mg/kg/day, po administrated via gavage for consecutive 10 days; format: organism-based; details: in vivo, 240 h, time 10 day
[24] = Toxicity in BALB/c mouse infected with Trypanosoma cruzi Y trypomastigotes assessed as animal survival at 25 mg/kg/day, po administrated via gavage for consecutive 10 days; format: organism-based; details: in vivo, 240 h, time 10 day

| SMILES | selectivity ratio [1] | Activity (Trypanosoma cruzi [2]) | Activity (Trypanosoma cruzi [3]) | IC50 (Leishmania amazonensis [4]) [µM] | Activity [5] | CC50 at 72 h [6] [µM] | Ratio IC50 (Trypanosoma cruzi [7]) | survival at 240 h [8] [%] | Kobs (Trypanosoma cruzi [9]) [s⁻¹] | selectivity ratio [10] | Activity (Trypanosoma cruzi [11]) | IC50 (Trypanosoma cruzi [12]) [µM] | Kobs (Trypanosoma cruzi [13]) [s⁻¹] | Activity (Trypanosoma cruzi [14]) | Ratio IC50 (Leishmania amazonensis [22]) | other results |
| --- | --- | --- | --- | --- | --- | --- | --- | --- | --- | --- | --- | --- | --- | --- | --- | --- |
| O=[N+]([O-])c1nccn1Cc1cc(-c2ccc(O)cc2)no1 | > 87.7 | Active | inactive | 18.7 | Non-Toxic | > 50 | 12 | 100 | 0.47 | > 2.7 | Active | 0.6 | 0.68 | inactive |  |  |
| O=C(Cn1ccnc1[N+](=O)[O-])NCc1ccccc1 [BENZNIDAZOLE] | > 9.3 | Active | inactive |  | Non-Toxic | > 50 |  | 100 | 0.13 |  | Active | 3.8 | 0.3 | inactive |  | Activity [15]: Non-Toxic; Activity (Trypanosoma cruzi [16]): 99%; Activity (Trypanosoma cruzi [17]): inactive; survival at 240 h [18]: 100% |
| CCN1CCN(c2ccc(-c3cc(Cn4ccnc4[N+](=O)[O-])on3)cc2)CC1 | > 30.8 | Active |  | 5.5 | Non-Toxic | > 50 |  | 100 | 0.23 | > 9 | Active | 1.6 | 0.48 | inactive |  | Activity (Trypanosoma cruzi [19]): 73%; Activity (Trypanosoma cruzi [20]): 77%; Activity (Trypanosoma cruzi [21]): inactive |
| CN1CCN(c2ccc(-c3cc(Cn4ccnc4[N+](=O)[O-])on3)cc2)CC1 | > 125 | Active | inactive | 15.6 | Non-Toxic | > 50 | 10 | 100 | 0.21 | > 3.2 | Active | 0.4 | 0.38 | inactive |  |  |
| O=[N+]([O-])c1ccc(-c2cc(Cn3ccnc3[N+](=O)[O-])on2)o1 | > 51 |  |  |  |  | > 50 | 5.4 |  | 0.75 |  |  | 0.9 | 1.27 |  |  |  |
| Cc1ccc(-c2cc(Cn3ccnc3[N+](=O)[O-])on2)cc1[N+](=O)[O-] | > 1.5 |  |  | 3.3 |  | > 50 |  |  |  | > 15.3 |  | 33.6 |  |  | 5.1 |  |
| CN1CCCN(c2ccc(-c3cc(Cn4ccnc4[N+](=O)[O-])on3)cc2)CC1 | > 32 |  |  | 2.3 |  | > 50 |  |  |  | > 21.3 |  | 1.6 |  |  | 7.1 |  |
| COc1ccc(-c2cc(Cn3ccnc3[N+](=O)[O-])on2)cc1OC | > 200 | Active | inactive | 19.6 |  | > 50 | 15 |  | 0.57 | > 2.5 | Active | 0.2 | 0.82 | inactive |  | Activity [23]: Toxic; Activity [24]: Toxic |
| CC(C)N1CCN(c2ccc(-c3cc(Cn4ccnc4[N+](=O)[O-])on3)cc2)CC1 | > 7.6 |  |  | 4.7 |  | > 50 |  |  |  | > 10.6 |  | 6.6 |  |  | 3.5 |  |
